Laboratory results: ChEMBL document CHEMBL5223113, “Several non-salt and solid thienopyridine derivatives as oral P2Y12 receptor inhibitors with good stability” (Bioorg Med Chem Lett, 2022)

Tests used:
[1] = Toxicity in beagle dog assessed as death at 2000 mg/kg oral gavage observed for 14 days; assay type: organism-based, Canis lupus familiaris; conditions: in vivo, 336 h, time 14 day
[2] = species on record: Rattus norvegicus; assay: Inhibition of thrombosis in anteriovenous bypassed rat; assay type: functional
[3] = Toxicity in beagle dog assessed as decrease in platelet aggregation at 100 mg/kg/day oral gavage observed for 14 days; assay type: organism-based, Canis lupus familiaris; conditions: in vivo, 336 h, time 14 day
[4] = tested on: Rattus norvegicus; assay: Inhibition of thrombosis in anteriovenous bypassed rat at 1 mg/kg relative to control; assay type: functional
[5] = Stability in human plasma assessed as compound remaining measured at 300 mins relative to control; assay type: ADME, cell-free; conditions: read-out: Stability
[6] = Toxicity in rat assessed as bleeding time by tail cutting assay; conditions: in vivo
[7] = Stability in human plasma assessed as compound remaining measured at 90 mins relative to control; assay type: ADME, cell-free; conditions: read-out: Stability
[8] = tested on: Rattus norvegicus; assay: Inhibition of thrombosis in anteriovenous bypassed rat at 3 mg/kg relative to control; assay type: functional
[9] = Toxicity in beagle dog assessed as mydriasis at 100 mg/kg/day oral gavage observed for 14 days; assay type: organism-based, Canis lupus familiaris; conditions: in vivo, 336 h, time 14 day
[10] = tested on: Rattus norvegicus; assay: Anti-platelet activity against ADP-induced platelet aggregation in rat assessed as inhibition of platelet aggregation at 2 mg/kg relative to control; assay type: functional
[11] = Toxicity in beagle dog assessed as ALT level at 100 to 300 mg/kg/day oral gavage observed for 14 days; assay type: organism-based, Canis lupus familiaris; conditions: in vivo, 336 h, dose 100-300 mg/kg/day, time 14 day
[12] = Toxicity in beagle dog assessed as ALP level at 100 to 300 mg/kg/day oral gavage observed for 14 days; assay type: organism-based, Canis lupus familiaris; conditions: in vivo, 336 h, dose 100-300 mg/kg/day, time 14 day
[13] = Toxicity in beagle dog assessed as emesis at 100 mg/kg/day oral gavage observed for 14 days; assay type: organism-based, Canis lupus familiaris; conditions: in vivo, 336 h, time 14 day
[14] = tested on: Rattus norvegicus; assay: Anti-platelet activity against ADP-induced platelet aggregation in rat assessed as inhibition of platelet aggregation at 0.5 mg/kg relative to control; assay type: functional
[15] = Toxicity in beagle dog assessed as abnormality in blood and biochemical index at 100 to 300 mg/kg/day oral gavage observed for 14 days; assay type: organism-based, Canis lupus familiaris; conditions: in vivo, 336 h, dose 100-300 mg/kg/day, time 14 day
[16] = Stability in human plasma assessed as compound remaining measured at 5 mins relative to control; assay type: ADME, cell-free; conditions: read-out: Stability
[17] = Stability in human plasma assessed as compound remaining measured at 10 mins relative to control; assay type: ADME, cell-free; conditions: read-out: Stability
[18] = Stability in human plasma assessed as compound remaining measured at 150 mins relative to control; assay type: ADME, cell-free; conditions: read-out: Stability
[19] = tested on: Rattus norvegicus; assay: Anti-platelet activity against ADP-induced platelet aggregation in rat assessed as inhibition of platelet aggregation at 1 mg/kg relative to control; assay type: functional
[20] = Stability in human plasma assessed as compound remaining measured at 20 mins relative to control; assay type: ADME, cell-free; conditions: read-out: Stability
[21] = Stability in human plasma assessed as compound remaining measured at 360 mins relative to control; assay type: ADME, cell-free; conditions: read-out: Stability
[22] = Toxicity in beagle dog assessed as abnormality in blood and biochemical index at 2000 mg/kg oral gavage observed for 14 days; assay type: organism-based, Canis lupus familiaris; conditions: in vivo, 336 h, time 14 day
[23] = tested on: Rattus norvegicus; assay: Inhibition of thrombosis in anteriovenous bypassed rat at 10 mg/kg relative to control; assay type: functional
[24] = Toxicity in rat assessed as bleeding time by measuring ratio of ED200 to ED50 ratio by tail cutting assay; conditions: in vivo
[25] = Stability in human plasma assessed as compound remaining measured at 30 mins relative to control; assay type: ADME, cell-free; conditions: read-out: Stability
[26] = Toxicity in beagle dog assessed as swelling of hepatocyte at 100 mg/kg/day oral gavage observed for 14 days; assay type: organism-based, Canis lupus familiaris; conditions: hepatocytes, 336 h, time 14 day
[27] = Stability in human plasma assessed as compound remaining measured at 180 mins relative to control; assay type: ADME, cell-free; conditions: read-out: Stability
[28] = Toxicity in beagle dog assessed as electrocardiogram at 2000 mg/kg oral gavage observed for 14 days; assay type: organism-based, Canis lupus familiaris; conditions: in vivo, 336 h, time 14 day
[29] = Stability in human plasma assessed as compound remaining measured at 45 mins relative to control; assay type: ADME, cell-free; conditions: read-out: Stability
[30] = tested on: Rattus norvegicus; assay: Inhibition of thrombosis in anteriovenous bypassed rat at 30 mg/kg relative to control; assay type: functional
[31] = Toxicity in beagle dog assessed as vomiting at 100 to 300 mg/kg/day oral gavage observed for 14 days; assay type: organism-based, Canis lupus familiaris; conditions: in vivo, 336 h, dose 100-300 mg/kg/day, time 14 day
[32] = Stability in human plasma assessed as compound remaining measured at 60 mins relative to control; assay type: ADME, cell-free; conditions: read-out: Stability
[33] = Toxicity in beagle dog assessed as increase in liver weight at 100 mg/kg/day oral gavage observed for 14 days; assay type: organism-based, Canis lupus familiaris; conditions: in vivo, 336 h, time 14 day
[34] = Toxicity in beagle dog assessed as increase in ALP at 100 mg/kg/day oral gavage observed for 14 days; assay type: organism-based, Canis lupus familiaris; conditions: in vivo, 336 h, time 14 day
[35] = Stability in human plasma assessed as compound remaining measured at 240 mins relative to control; assay type: ADME, cell-free; conditions: read-out: Stability
[36] = Toxicity in beagle dog assessed as dilated pupil at 100 to 300 mg/kg/day oral gavage observed for 14 days; assay type: organism-based, Canis lupus familiaris; conditions: in vivo, 336 h, dose 100-300 mg/kg/day, time 14 day
[37] = Toxicity in beagle dog assessed as electrocardiogram at 100 to 300 mg/kg/day oral gavage observed for 14 days; assay type: organism-based, Canis lupus familiaris; conditions: in vivo, 336 h, dose 100-300 mg/kg/day, time 14 day
[38] = Stability in human plasma assessed as compound remaining measured at 120 mins relative to control; assay type: ADME, cell-free; conditions: read-out: Stability
[39] = tested on: Rattus norvegicus; assay: Anti-platelet activity against ADP-induced platelet aggregation in rat assessed as inhibition of platelet aggregation at 4 mg/kg relative to control; assay type: functional
[40] = tested on: Rattus norvegicus; assay: Inhibition of thrombosis in anteriovenous bypassed rat at 0.3 mg/kg relative to control; assay type: functional
[41] = Toxicity in beagle dog assessed as atrophy of hepatocyte at 1000 mg/kg oral gavage single dose; assay type: organism-based, Canis lupus familiaris; conditions: hepatocytes
[42] = tested on: Rattus norvegicus; assay: Anti-platelet activity against ADP-induced platelet aggregation in rat assessed as inhibition of platelet aggregation at 0.25 mg/kg relative to control; assay type: functional
[43] = Toxicity in beagle dog assessed as vomiting at 1000 mg/kg oral gavage single dose; assay type: organism-based, Canis lupus familiaris; conditions: in vivo
[44] = tested on: Rattus norvegicus; assay: Inhibition of thrombosis in anteriovenous bypassed rat at 0.1 mg/kg relative to control; conditions: read-out: INH

In the case of `C/C=C/C(=O)Oc1cc2c(s1)CCN([C@H](C(=O)OC)c1ccccc1Cl)C2`, the Activity [1] was “Non-Toxic”, the ED50 [2] was 11.8 mg/kg and the Activity [3] was “Toxic”. It also gave an inhibition in vivo at 1 mg/kg [4] of 18.3%, a remaining at 5 h [5] of 0% and an ED200 [6] of 1.977 mg/kg. For the same compound, the remaining at 1.5 h [7] was 5.49%, the inhibition in vivo at 3 mg/kg [8] was 43.2% and the Activity [9] was “Toxic”. The inhibition in vivo at 2 mg/kg [10] was 77%, the Activity [11] was “Non-Toxic” and the Activity [12] was “Non-Toxic”. For the same compound, the Activity [13] was “Toxic”, the inhibition in vivo at 0.5 mg/kg [14] was 22.4% and the Activity [15] was “Non-Toxic”. The remaining at 5 min [16] was 91.7%, the remaining at 10 min [17] was 82.3% and the remaining at 2.5 h [18] was 0.588%. For the same compound, the inhibition in vivo at 1 mg/kg [19] was 50.2%, the remaining at 20 min [20] was 60.5% and the remaining at 6 h [21] was 0%. The Activity [22] was “Non-Toxic”, the inhibition in vivo at 10 mg/kg [23] was 56% and the selectivity ratio [24] was 1.97. For the same compound, the remaining at 0.5 h [25] was 44.7%, the Activity [26] was “Toxic” and the remaining at 3 h [27] was 0.231%. For the same compound, the Activity [28] was “Non-Toxic”, the remaining at 0.75 h [29] was 28% and the inhibition in vivo at 30 mg/kg [30] was 64.2%. For the same compound, the Activity [31] was “Non-Toxic”, the remaining at 1 h [32] was 18.3% and the Activity [33] was “Toxic”. For the same compound, the Activity [34] was “Toxic”, the remaining at 4 h [35] was 0% and the Activity [36] was “Non-Toxic”. The Activity [37] was “Non-Toxic” and the remaining at 2 h [38] was 1.7%.
Work on `C=C/C=C/C(=O)Oc1cc2c(s1)CCN([C@H](C(=O)OC)c1ccccc1Cl)C2` yielded an inhibition in vivo at 2 mg/kg [10] of 97.6%, an inhibition in vivo at 1 mg/kg [19] of 44% and an inhibition in vivo at 4 mg/kg [39] of 100%.
`CC(=O)Oc1cc2c(s1)CCN(C(C(=O)C1CC1)c1ccccc1F)C2` (stereo not drawn) [PRASUGREL] gave an ED50 [2] of 11.8 mg/kg, an inhibition in vivo at 0.3 mg/kg [40] of 9% and an inhibition in vivo at 1 mg/kg [4] of 35.7%. For the same compound, the ED200 [6] was 0.513 mg/kg, the Activity [41] was “Toxic” and the inhibition in vivo at 3 mg/kg [8] was 70.2%. The inhibition in vivo at 0.5 mg/kg [14] was 37.8%, the inhibition in vivo at 0.25 mg/kg [42] was 13.3% and the inhibition in vivo at 1 mg/kg [19] was 13.3%. For the same compound, the Activity [43] was “Toxic”, the inhibition in vivo at 0.1 mg/kg [44] was 6% and the selectivity ratio [24] was 0.838.
